Assay results published in article PMC9582434, “Ryanodine receptor-active non-dioxin-like polychlorinated biphenyls cause neurobehavioral deficits in larval zebrafish” (Frontiers in Toxicology, 2022).

Columns and labels:
[1] = tested on: RYR paralogs found in zebrafish skeletal muscle; experiment: [3H]ryanodine ligand binding assay, adult zebrafish tail muscle microsomes
Description: Sensitization of the zebrafish RYR by ortho-PCBs was measured using [^3H]ryanodine ([^3H]Ry) ligand binding assays as previously described ([Fritsch and Pessah, 2013]). Briefly, crude microsomal protein preparations were created from the tail (post dorsal fin) muscle (primarily white skeletal muscle) of six adult zebrafish (∼1 year old) that was homogenized in a buffer containing 320 mM sucrose, 5 mM HEPES, 1 mM PMSF, 10 mM NaF, 2 mM β-Glycerol, 5 mM Na4P2O7, 0.5 mM Na3VO4 and 2 μg/L leupeptin (pH 7.2). The homogenate was centrifuged at 5,000 × g (4°C) for 15 min. The pellet was re-homogenized in 5 ml homogenization buffer and centrifuged at 5,000 × g. Supernatants were combined for ultracentrifugation at 100,000 g (4°C for 1 h). The resultant pellet was re-suspended in a buffer of 320 mM sucrose and 5 mM HEPES (Sigma-Aldrich, St. Louis, MO, United States) at pH 7.2. Protein concentrations were determined in triplicate using a BCA Assay (Fisher Scientific, Waltham, MA, United States). [^3H]Ry ligand binding assays were conducted with 40 μg/ml of the crude protein homogenate in the presence of DMSO (0.5%) or 0.1–50 μM of individual PCB congeners in 0.5% DMSO. Tests were run using 5 nM [^3H]Ry (Perkin Elmer Waltham, MA, United States), 250 mM KCl, 20 mM HEPES, 15 mM NaCl, and 50 μM CaCl2 (pH 7.1) and incubated for 16 h at 25°C. Non-specific binding was determined with the addition of 10 µM ryanodine (Tocris Bioscience, Bristol, United Kingdom) and 200 μM EGTA (Sigma-Aldrich, St. Louis, MO, United States). Assays were terminated by rapid filtration through Whatman GF/B filter paper (Brandel, Gaithersburg, MD, United States) and washed with ice-cold buffer containing 140 mM KCl, 10 mM HEPES, and 0.1 mM CaCl2, pH 7.4. Bound radioligand was measured by liquid scintillation counting (Beckman Coulter, Indianapolis, IN, United States). PCB-induced [^3H]Ry binding was assessed in two different protein preparations, and each assay was run in triplicate. Individual PCB concentration-response curves were determined using non-linear regression (GraphPad Prism 6.0, GraphPad Software Inc., San Diego, CA, United States).

larval zebrafish = experiment: Larval photomotor behavior test (light/dark locomotor test); type: in vivo
Description: At 4 hpf, embryos were treated with 50 µl of 41 mg/ml protease from Streptomyces griseus (P5147, Sigma-Aldrich, St. Louis, MO, United States) in 25 ml of FW for a maximum of 6 min to remove the chorion ([Truong et al., 2011]). At 5 hpf, embryos were placed in individual wells of 96-well plates filled with 100 µl of EM. At 6 hpf, embryos were exposed to a 2× concentration of the selected PCB congeners or controls that were diluted in 100 μl EM to produce a 1× concentration in a total of 200 µl solution. […] After exposure, plates were covered with Parafilm M (Bemis NA, Neenah, WI, United States) to reduce evaporation and placed in an incubator at 28.5°C with 14 h light (∼300 lux)/10 h dark cycles. Final DMSO concentrations were 0.2% (vol/vol) for all exposures. Fish were statically exposed until 5 dpf.
Larval locomotor tests were performed at 3, 4, and 5 dpf. Vehicle and PCB-exposed larvae in 96-well plates were placed in a DanioVision behavior system (Noldus Information Technology, Leesburg, VA, United States) and subjected to a 35 min light/dark locomotor test. System and plate temperature were maintained at 28.5 ± 0.5°C using a temperature control unit from Noldus. The testing paradigm consisted of a 10 min light period (∼1,900 lux) to allow for acclimation (5 min) and to record baseline swimming (5 min). This was followed by a 5 min dark period (∼0 lux) to stimulate increased swimming behavior and a 5 min light period (∼1,900 lux) to stimulate freezing behavior. The last 15 min consisted of a dark period (∼0 lux) to observe increased swimming behavior and acclimation to the dark conditions.
The distance traveled binned per minute by each larva during the 35-min observation test period was recorded via continuous tracing using a DanioVision system camera with an infrared filter to allow recording in both light and dark conditions. Movement was tracked using EthoVisionXT software (Noldus Information Technology) and exported to Excel and Prism 6.0 (GraphPad Software) for analysis and visualization. Dead and/or malformed larvae (as noted by observation under dissecting scope) were excluded from the behavior analysis.
The trapezoidal rule was used to compute the area under the curve (AUC) for each fish per day per lighting condition. The first 5 min of the 35-min observation period was removed to account for initial acclimation. Therefore, data were analyzed for the following time epochs: Light 1 (L1) = 6–10 min, Dark 1 (D1) = 11–15 min, Light 2 (L2) = 16–20 min, and Dark 2 (D2) = 21–35 min. Mixed effects regression models, including zebrafish-specific random effects, were used to assess differences between groups. DMSO groups from each spawn date (≥3 independent spawns) and plate were combined in the analysis. Separate models were fit for each congener. New variables were defined to capture differences in the AUC between Light 1 and Dark 1, Dark 1 and Light 2, and Light 2 and Dark 2, to measure change in distance traveled when transitioning from light to dark or dark to light. Contrasts were specified to compare these transitions and the AUC during each of the lighting conditions between the exposed groups and the DMSO control group. […] Due to some zeroes in the AUC, all values were shifted by 0.1 prior to taking the natural logarithm. Concentration (0.1, 0.3, 1, 3, 10 µM and DMSO), day (3, 4, 5 dpf), and the transition variables were all of interest in the models, including their interactions. Akaike information criterion was used for model selection and Wald tests for comparing groups. All analyses were conducted using SAS version 9.4.
The neurotoxic potential of the congeners tested in this study were ranked based on the three endpoints measured in this study: RYR binding, behavior, and body burden. Congeners were ranked relative to each other for each individual endpoint from 1 (highest) to 6 (lowest), and then the three scores for each congener averaged to obtain an overall relative ranking for each congener. […]

## Clc1cc(Cl)c(-c2cc(Cl)c(Cl)cc2Cl)cc1Cl [PCB 153, 2,2',4,4',5,5'-Hexachlorobiphenyl]
[1]; concentration causing two-fold induction in ligand binding vs DMSO control
  EC2X: 3.88
[1]; maximum [3H]Ry binding response compared to DMSO control, mean ± SEM
  Max. response SEM (%): 320.40 ± 92.18%
[1]; relative EC50, concentration causing half-maximum response, PCB 0.1–50 μM
  EC50: 4.34 µM
[1]; zebrafish muscle
  RYR activity (in words): moderate
Larval zebrafish; 0.3 µM, 4 dpf
  L1-D1 transition relative to vehicle control: attenuating
Larval zebrafish; 0.3 µM, 4 dpf, L1
  distance moved relative to vehicle control: moved more
Larval zebrafish; 1 µM, 3 dpf
  L1-D1 transition relative to vehicle control: larger
Larval zebrafish; 1 µM, 3 dpf, D1
  distance moved relative to vehicle control: moved more
Larval zebrafish; 1 µM, 3 dpf, D2
  distance moved relative to vehicle control: moved more
Larval zebrafish; 1 µM, 3 dpf, L2
  distance moved relative to vehicle control: moved more
Larval zebrafish; 10 µM, 3 dpf
  L1-D1 transition relative to vehicle control: larger
Larval zebrafish; 10 µM, 3 dpf, D1
  distance moved relative to vehicle control: moved more
Larval zebrafish; 10 µM, 3 dpf, D2
  distance moved relative to vehicle control: moved more
Larval zebrafish; 10 µM, 3 dpf, L2
  distance moved relative to vehicle control: moved more
Larval zebrafish; 10 µM, 4 dpf, L2
  distance moved relative to vehicle control: moved more
Larval zebrafish; 10 µM, 5 dpf
  L1-D1 transition relative to vehicle control: attenuated
Larval zebrafish; 10 µM, 5 dpf, L1
  distance moved relative to vehicle control: moved more
Larval zebrafish; 10 µM, 5 dpf, L2
  distance moved relative to vehicle control: more movement
Larval zebrafish; sum of absolute [1 − (AUC value/DMSO)] over all concentrations, epochs and 3, 4, 5 dpf
  Behavior score (total change from control): 23.05
